Reference: patent US7115296B2, “N-alkylaspartyl amide derivative and sweetening agent” (Ajinomoto Co., Inc., priority 2001, dated 2006)
Read-outs that look alike come from different tables or passages of the source. Peptide text beside a SMILES is read from it.

Experiments:
[1] = sensory (organoleptic) test of sweetening potency
[2] = times that of sucrose; reported in WO 94/11391; cited from earlier work
physchem = details: buffer, pH 3
[3] = times the sweetness of sugar, sensory test
[4] = values compared to sweetening potency of a 4% aqueous solution of sucrose

Compound | Sweetening potency [1, 3] | Sweetening potency [1, 4] | other results
COc1ccc(CCCN[C@@H](CC(=O)O)C(=O)N[C@H](C)C(O)CC2CCCCC2)cc1O (mixture of isomers) [compound 12, N-[3-(3-hydroxy-4-methoxyphenyl)propyl]-α-L-aspartyl N-(1R,2RS)-1-methyl-2-hydroxy-3-cyclohexylpropyl amide] | 4000 times | 4000 | 
COC(=O)[C@H](Cc1ccccc1)NC(=O)[C@H](CC(=O)O)NCCC(C)(C)C [N-[N-(3,3-dimethylbutyl)-L-α-aspartyl]-L-phenylalanine 1-methyl ester] |  |  | Sweetening potency [2]: 10000 times
COC(=O)[C@H](Cc1ccccc1)NC(=O)[C@@H](N)CC(=O)O [aspartame] (H-Asp-Phe-OMe) |  |  | half-life (physchem): ~30 h
CC[C@@H](C[C@H](O)[C@@H](C)NC(=O)[C@H](CC(=O)O)NCCCc1ccc(OC)c(O)c1)c1ccccc1 [compound 1, N-[3-(3-hydroxy-4-methoxyphenyl)propyl]-α-L-aspartyl N-(1R,2S,4S)-1-methyl-2-hydroxy-4-phenylhexyl amide] | approximately 15000 times | 15000 | Sweetening potency ([1]; times the sweetness of sugar, sensory test, listed as Compound No.1): 15000 times
CC[C@@H](C[C@H](O)[C@@H](C)NC(=O)[C@H](CC(=O)O)NCCCc1ccc(O)c(OC)c1)c1ccccc1 [compound 2, N-[3-(3-methoxy-4-hydroxyphenyl)propyl]-α-L-aspartyl N-(1R,2S,4S)-1-methyl-2-hydroxy-4-phenylhexyl amide] | 10000 times | 10000 | 
CC[C@@H](C[C@H](O)[C@@H](C)NC(=O)[C@H](CC(=O)O)NCCCc1ccc(OC)cc1O)c1ccccc1 [compound 3, N-[3-(2-hydroxy-4-methoxyphenyl)propyl]-α-L-aspartyl N-(1R,2S,4S)-1-methyl-2-hydroxy-4-phenylhexyl amide] | 6000 times | 6000 | 
CC[C@@H](C[C@H](O)[C@@H](C)NC(=O)[C@H](CC(=O)O)NCCCc1ccc(O)cc1O)c1ccccc1 [compound 4, N-[3-(2,4-dihydroxyphenyl)propyl]-α-L-aspartyl N-(1R,2S,4S)-1-methyl-2-hydroxy-4-phenylhexyl amide] | 10000 times | 10000 | 
CC[C@@H](C[C@H](O)[C@@H](C)NC(=O)[C@H](CC(=O)O)NCCCc1ccc(C)c(O)c1)c1ccccc1 [compound 5, N-[3-(3-hydroxy-4-methylphenyl)propyl]-α-L-aspartyl N-(1R,2S,4S)-1-methyl-2-hydroxy-4-phenylhexyl amide] | 6000 times | 6000 | 
CC[C@@H](C[C@H](O)[C@@H](C)NC(=O)[C@H](CC(=O)O)NCCCc1ccc(O)c(C)c1)c1ccccc1 [compound 6, N-[3-(3-methyl-4-hydroxyphenyl)propyl]-α-L-aspartyl N-(1R,2S,4S)-1-methyl-2-hydroxy-4-phenylhexyl amide] | 4000 times | 4000 | 
CC[C@@H](C[C@H](O)[C@@H](C)NC(=O)[C@H](CC(=O)O)NCCCc1ccc(O)cc1)c1ccccc1 [compound 7, N-[3-(4-hydroxyphenyl)propyl]-α-L-aspartyl N-(1R,2S,4S)-1-methyl-2-hydroxy-4-phenylhexyl amide] | 6000 times | 6000 | 
CC[C@@H](C[C@H](O)[C@@H](C)NC(=O)[C@H](CC(=O)O)NCCCc1ccc(OC)cc1)c1ccccc1 [compound 8, N-[3-(4-methoxyphenyl)propyl]-α-L-aspartyl N-(1R,2S,4S)-1-methyl-2-hydroxy-4-phenylhexyl amide] | 3000 times | 3000 | 
CC[C@@H](C[C@H](O)[C@@H](C)NC(=O)[C@H](CC(=O)O)NCCC(C)(C)c1ccc(OC)c(O)c1)c1ccccc1 [compound 9, N-[3-methyl-3-(3-hydroxy-4-methoxyphenyl)butyl]-α-L-aspartyl N-(1R,2S,4S)-1-methyl-2-hydroxy-4-phenylhexyl amide] | approximately 15000 times | 15000 | Sweetening potency ([1]; times the sweetness of sugar, sensory test, listed as Compound No.9): 15000 times
CC[C@@H](C[C@H](O)[C@@H](C)NC(=O)[C@H](CC(=O)O)NCCC(C)(C)c1ccc(O)c(C)c1)c1ccccc1 [compound 10, N-[3-methyl-3-(3-methyl-4-hydroxyphenyl)butyl]-α-L-aspartyl N-(1R,2S,4S)-1-methyl-2-hydroxy-4-phenylhexyl amide] | 15000 times | 15000 | 
CC[C@H](C[C@H](O)[C@@H](C)NC(=O)[C@H](CC(=O)O)NCCCc1ccc(OC)c(O)c1)c1ccccc1 [compound 11, N-[3-(3-hydroxy-4-methoxyphenyl)propyl]-α-L-aspartyl N-(1R,2S,4R)-1-methyl-2-hydroxy-4-phenylhexyl amide] | 4000 times | 4000 | 
COc1ccc(CCCN[C@@H](CC(=O)O)C(=O)N[C@H](C)[C@H](O)CC2CCCCC2)cc1O [compound 13, N-[3-(3-hydroxy-4-methoxyphenyl)propyl]-α-L-aspartyl N-(1R,2R)-1-methyl-2-hydroxy-3-cyclohexylpropyl amide] | 5000 times | 5000 | 
COc1ccc(C(C)(C)CCN[C@@H](CC(=O)O)C(=O)N[C@H](C)[C@H](O)CC2CCCCC2)cc1O [compound 14, N-[3-methyl-3-(3-hydroxy-4-methoxyphenyl)butyl]-α-L-aspartyl N-(1R,2R)-1-methyl-2-hydroxy-3-cyclohexylpropyl amide] | 5000 times | 5000 | 
CC[C@@H](C[C@H](O)[C@@H](C)NC(=O)[C@H](CC(=O)O)NCCC(C)(C)CCO)c1ccccc1 [compound 15, N-(3,3-dimethyl-5-hydroxypentyl)-α-L-aspartyl N-(1R,2S,4S)-1-methyl-2-hydroxy-4-phenylhexyl amide] | 6500 times | 6500 | 
CC[C@@H](C[C@H](O)[C@@H](C)NC(=O)[C@H](CC(=O)O)NCCC(C)(C)CCCO)c1ccccc1 [compound 16, N-(3,3-dimethyl-6-hydroxyhexyl)-α-L-aspartyl N-(1R,2S,4S)-1-methyl-2-hydroxy-4-phenylhexyl amide] | 4500 times | 4500 | 
